Measured values reported in the supplement of paper PMC10307832.

Experiments:
Test in all cases: relative viability (nuclei count vs DMSO), 5 days (fraction); higher = more cells survive
[1] = compound: Cc1ccc(-n2nc(C(C)(C)C)cc2NC(=O)Nc2ccc(OCCN3CCOCC3)c3ccccc23)cc1 [Doramapimod] + CS(=O)(=O)N1CCN(Cc2cc3nc(-c4cccc5[nH]ncc45)nc(N4CCOCC4)c3s2)CC1 [Pictilisib] (partner 1 µM)
Summary of the method: (§1)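 After 5 days of treatment, lung cancer cells in 1536-well plates were fixed and stained in a single step (final 0.05% Triton X-100, 1% formaldehyde, 1 ug/ml Hoechst) and their nuclei counted on 4× images. Treatment had been applied by pin tool the day after seeding as one drug alone or as a fixed anchor-drug dose with five library-drug doses (not always all listed) in √10 steps. Relative viability is the nuclei count of treated wells divided by that of vehicle wells, and values are medians of duplicate plates.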

[2] = compound: Cn1c(Nc2ccc(C(F)(F)F)cc2)nc2cc(Oc3ccnc(-c4ncc(C(F)(F)F)[nH]4)c3)ccc21 [RAF265] + CC(=O)Nc1cccc(-n2c(=O)n(C3CC3)c(=O)c3c(Nc4ccc(I)cc4F)n(C)c(=O)c(C)c32)c1 [Trametinib] (partner 0.02 µM)
Summary of the method: as §1

[3] = compound: C1=CC=C2C(=C1)C=CC(=C2SSC3=C(C=CC4=CC=CC=C43)O)O [IPA-3] + O=C(c1cc(Cc2n[nH]c(=O)c3ccccc23)ccc1F)N1CCN(C(=O)C2CC2)CC1 [Olaparib] (partner 8 µM)
Summary of the method: as §1

[4] = compound: Cc1ccc(-n2nc(C(C)(C)C)cc2NC(=O)Nc2ccc(OCCN3CCOCC3)c3ccccc23)cc1 [Doramapimod] + Nc1nc2[nH]cc(CCc3ccc(C(=O)N[C@@H](CCC(=O)O)C(=O)O)cc3)c2c(=O)[nH]1 [Pemetrexed] (partner 0.2 µM)
Summary of the method: as §1

Cell Line	relative viability ([1]; first compound 0.02 µM)	relative viability ([1]; first compound 0.06325 µM)	relative viability ([1]; first compound 0.2 µM)	relative viability ([1]; first compound 0.6325 µM)	relative viability ([1]; first compound 2 µM)	relative viability ([2]; first compound 0.01 µM)	relative viability ([2]; first compound 0.03162 µM)	relative viability ([2]; first compound 0.1 µM)	relative viability ([2]; first compound 0.3162 µM)	relative viability ([2]; first compound 1 µM)	relative viability ([3]; first compound 0.2 µM)	relative viability ([3]; first compound 0.6325 µM)	relative viability ([3]; first compound 2 µM)	relative viability ([3]; first compound 6.325 µM)	relative viability ([3]; first compound 20 µM)	relative viability ([4]; first compound 0.02 µM)	relative viability ([4]; first compound 0.06325 µM)	relative viability ([4]; first compound 0.2 µM)	relative viability ([4]; first compound 0.6325 µM)	relative viability ([4]; first compound 2 µM)
NCI-H1355	0.438	0.356	0.386	0.366	0.332	0.438	0.355	0.383	0.283	0.206	0.764	0.779	0.836	0.675	0.709	1.06	1.04	0.999	1.05	0.894
EKVX	0.391	0.375	0.364	0.513	0.352	0.387	0.385	0.417	0.217	0.277	0.942	0.934	0.787	0.774	0.86	0.426	0.34	0.325	0.415	0.357
NCI-H441	0.451	0.323	0.417	0.44	0.394	0.598	0.504	0.461	0.436	0.457	0.759	0.507	0.48	0.409	0.432	0.252	0.244	0.251	0.268	0.268
NCI-H1975	0.324	0.32	0.315	0.373	0.294	0.422	0.286	0.22	0.173	0.191	1.03	0.761	0.815	0.705	0.495	0.305	0.276	0.304	0.293	0.282
HCC-78	0.224	0.208	0.224	0.173	0.184	0.79	0.913	0.728	0.705	0.537	0.885	0.836	0.805	0.881	0.932	0.879	0.883	0.918	0.967	0.887
NCI-H2085	0.438	0.424	0.431	0.45	0.381	0.45	0.524	0.514	0.511	0.545	0.785	0.759	0.816	0.768	0.883	0.938	0.972	0.926	1.07	0.657
H3255	0.485	0.495	0.466	0.545	0.414	0.719	0.585	0.657	0.271	0.458	0.605	0.555	0.565	0.518	0.562	0.577	0.56	0.562	0.559	0.525
NCI-H2087	0.754	0.795	0.83	0.764	0.847	0.195	0.148	0.154	0.161	0.129	0.685	0.631	0.642	0.474	0.763	0.589	0.646	0.597	0.573	0.61
LC-2-ad	0.303	0.429	0.605	0.537	0.267	0.931	0.958	1.01	0.839	0.432	0.811	0.738	0.699	0.751	0.683	0.268	0.291	0.297	0.28	0.289
PC-3 [JPC-3]	0.809	0.772	0.771	0.897	0.421	0.708	0.708	0.761	0.469	0.466	1.11	1.08	1.28	1.05	1.13	1.27	1.37	1.24	0.933	1.03
EBC-1	0.355	0.279	0.363	0.355	0.247						0.904	0.668	0.715	0.607	0.493					
HCC-15	0.728	0.684	0.8	0.359	0.689	0.346	0.403	0.379	0.338	0.21	0.842	0.699	0.694	0.741	0.728	0.225	0.231	0.245	0.211	0.224
NCI-H1563	0.677	0.633	0.634	0.724	0.645											0.83	0.768	0.811	1.13	0.787
COR-L 105	0.425	0.344	0.374	0.426	0.379	0.47	0.428	0.429	0.38	0.348	0.757	0.622	0.663	0.755	0.665	1.21	1.05	0.995	1.31	0.951
